Read-outs that look alike come from different tables or passages of the source.
System: hepatocytes
Assay: RNA-seq of hepatocytes treated with Phase III failure compounds
Details: for significant modulation of expression of disease genes: q≤0.05, genes in the value or listed in the block; for B2M expression, RNA-seq result: gene B2M; for B9D2 expression, RNA-seq result: gene B9D2; for BAAT expression, RNA-seq result: gene BAAT; for BBOX1 expression, RNA-seq result: gene BBOX1; for BBS10 expression, RNA-seq result: gene BBS10; for BCHE expression, RNA-seq result: gene BCHE; for BCKDHB expression, RNA-seq result: gene BCKDHB; for BCKDK expression, RNA-seq result: gene BCKDK; for BCO1 expression, RNA-seq result: gene BCO1; for BCR expression, RNA-seq result: gene BCR; for BLNK expression, RNA-seq result: gene BLNK; for BLOC1S3 expression, RNA-seq result: gene BLOC1S3; for BMPR1A expression, RNA-seq result: gene BMPR1A; for BRAF expression, RNA-seq result: gene BRAF; for BSCL2 expression, RNA-seq result: gene BSCL2; for BTD expression, RNA-seq result: gene BTD; for C4A expression, RNA-seq result: gene C4A; for C9 expression, RNA-seq result: gene C9; for C10orf10 expression, RNA-seq result: gene C10orf10; for C10orf11 expression, RNA-seq result: gene C10orf11; for C15orf41 expression, RNA-seq result: gene C15orf41; for CA2 expression, RNA-seq result: gene CA2; for CA5A expression, RNA-seq result: gene CA5A; for CA12 expression, RNA-seq result: gene CA12; for CAV1 expression, RNA-seq result: gene CAV1; for CCND1 expression, RNA-seq result: gene CCND1; for CD46 expression, RNA-seq result: gene CD46; for CD81 expression, RNA-seq result: gene CD81; for CD320 expression, RNA-seq result: gene CD320; for CDAN1 expression, RNA-seq result: gene CDAN1; for CDH1 expression, RNA-seq result: gene CDH1; for CEP19 expression, RNA-seq result: gene CEP19; for CEP83 expression, RNA-seq result: gene CEP83; for CEP164 expression, RNA-seq result: gene CEP164; for CEP290 expression, RNA-seq result: gene CEP290; for CFB expression, RNA-seq result: gene CFB; for CFHR2 expression, RNA-seq result: gene CFHR2; for CHRM3 expression, RNA-seq result: gene CHRM3; for CIDEC expression, RNA-seq result: gene CIDEC; for CLDN1 expression, RNA-seq result: gene CLDN1; for COG1 expression, RNA-seq result: gene COG1
Description: RNA-seq was performed to determine the effects of the compounds on hepatocytes.
Significance was determined by the criteria of FPKM≥0.5, a log 2(fold-change)≥1, and a […].

## Cn1c(COP(=O)(NCCBr)NCCBr)cnc1[N+](=O)[O-] [TH-302 (Evofosfamide), Evofosfamide]
  Number (#) of genes having significantly changed expression: 28
RNA-seq, hepatocytes
  significant modulation of expression of disease genes: significantly (q≤0.05) modulate expression of the following genes: FAM111B, FGFR2, PKHD1, and RMRP
hepatocytes
  B2M expression, RNA-seq result: 0.16
  B9D2 expression, RNA-seq result: −0.2
  BAAT expression, RNA-seq result: 0.12
  BBOX1 expression, RNA-seq result: 0.35
  BBS10 expression, RNA-seq result: 0.24
  BCHE expression, RNA-seq result: −0.07
  BCKDHB expression, RNA-seq result: −0.17
  BCKDK expression, RNA-seq result: 0.04
  BCO1 expression, RNA-seq result: −0.28
  BCR expression, RNA-seq result: −0.01
  BLNK expression, RNA-seq result: −0.2
  BLOC1S3 expression, RNA-seq result: 0.04
  BMPR1A expression, RNA-seq result: −0.05
  BRAF expression, RNA-seq result: −0.01
  BSCL2 expression, RNA-seq result: −0.03
  BTD expression, RNA-seq result: −0.16
  C4A expression, RNA-seq result: −0.36
  C9 expression, RNA-seq result: 0.16
  C10orf10 expression, RNA-seq result: −0.2
  C10orf11 expression, RNA-seq result: −0.71
  C15orf41 expression, RNA-seq result: 0.08
  CA2 expression, RNA-seq result: 0.11
  CA5A expression, RNA-seq result: −0.1
  CA12 expression, RNA-seq result: 0.32
  CAV1 expression, RNA-seq result: 0.13
  CCND1 expression, RNA-seq result: 0.16
  CD46 expression, RNA-seq result: 0.08
  CD81 expression, RNA-seq result: 0.09
  CD320 expression, RNA-seq result: 0.17
  CDAN1 expression, RNA-seq result: 0.11
  CDH1 expression, RNA-seq result: −0.56
  CEP19 expression, RNA-seq result: −0.02
  CEP83 expression, RNA-seq result: −0.06
  CEP164 expression, RNA-seq result: −0.03
  CEP290 expression, RNA-seq result: 0.16
  CFB expression, RNA-seq result: 0.01
  CFHR2 expression, RNA-seq result: 0.13
  CHRM3 expression, RNA-seq result: −0.58
  CIDEC expression, RNA-seq result: −0.06
  CLDN1 expression, RNA-seq result: −0.05
  COG1 expression, RNA-seq result: 0.12

## CN(C)[C@@H]1C(O)=C(C(N)=O)C(=O)[C@@]2(O)C(O)=C3C(=O)c4c(O)c(NC(=O)CN5CCCC5)cc(F)c4C[C@H]3C[C@@H]12 [TP-434 (Eravacycline), Eravacycline]
  Number (#) of genes having significantly changed expression: 232
RNA-seq, hepatocytes
  significant modulation of expression of disease genes: significantly (q≤0.05) modulate expression
hepatocytes
  B2M expression, RNA-seq result: 0.56
  B9D2 expression, RNA-seq result: 0.16
  BAAT expression, RNA-seq result: −0.52
  BBOX1 expression, RNA-seq result: −0.06
  BBS10 expression, RNA-seq result: 0.05
  BCHE expression, RNA-seq result: 0.12
  BCKDHB expression, RNA-seq result: 0.04
  BCKDK expression, RNA-seq result: −0.23
  BCO1 expression, RNA-seq result: −0.13
  BCR expression, RNA-seq result: −0.17
  BLNK expression, RNA-seq result: −0.18
  BLOC1S3 expression, RNA-seq result: 0.32
  BMPR1A expression, RNA-seq result: −0.06
  BRAF expression, RNA-seq result: 0.03
  BSCL2 expression, RNA-seq result: 1.5
  BTD expression, RNA-seq result: −0.25
  C4A expression, RNA-seq result: −0.38
  C9 expression, RNA-seq result: 0.21
  C10orf10 expression, RNA-seq result: −0.02
  C10orf11 expression, RNA-seq result: 0.56
  C15orf41 expression, RNA-seq result: 0.12
  CA2 expression, RNA-seq result: 0.71
  CA5A expression, RNA-seq result: 0.32
  CA12 expression, RNA-seq result: 0.2
  CAV1 expression, RNA-seq result: 0.34
  CCND1 expression, RNA-seq result: −0.7
  CD46 expression, RNA-seq result: 0.23
  CD81 expression, RNA-seq result: 0.17
  CD320 expression, RNA-seq result: 0.3
  CDAN1 expression, RNA-seq result: −0.27
  CDH1 expression, RNA-seq result: −0.59
  CEP19 expression, RNA-seq result: 0.1
  CEP83 expression, RNA-seq result: −0.15
  CEP164 expression, RNA-seq result: −0.21
  CEP290 expression, RNA-seq result: 0.55
  CFB expression, RNA-seq result: 0.23
  CFHR2 expression, RNA-seq result: 0.4
  CHRM3 expression, RNA-seq result: −0.27
  CIDEC expression, RNA-seq result: −0.79
  CLDN1 expression, RNA-seq result: 0.09
  COG1 expression, RNA-seq result: −0.37

## CO[C@H]1C[C@@H]2CC[C@@H](C)[C@@](O)(O2)C(=O)C(=O)N2CCCC[C@H]2C(=O)O[C@H]([C@H](C)C[C@@H]2CC[C@@H](OC(=O)C(C)(CO)CO)[C@H](OC)C2)CC(=O)[C@H](C)/C=C(\C)[C@@H](O)[C@@H](OC)C(=O)[C@H](C)C[C@H](C)/C=C/C=C/C=C/1C [Temsirolimus]
RNA-seq, Phase III failure compounds, hepatocytes, significance: FPKM≥0.5, log 2(fold-change)≥1, q-value≥0.05 (so in the source)
  Number (#) of genes having significantly changed expression: 34
RNA-seq, p≤0.05, hepatocytes
  significant modulation of expression of any of the genes analyzed: not observed to significantly modulate expression
RNA-seq, hepatocytes
  effect on disease gene expression: no effect on any disease gene
